In patent US9844541B2, “Methods of modulating follicle stimulating hormone activity” (Strasspharma LLC, priority 2012, dated 2017):

What was measured:
[1] = system: follicle stimulating hormone (FSH) receptor (FSH-R); test: Conclusion from endocrine profile: effect on FSH receptor signaling; format: in vivo, human; conditions: concluded from the endocrine profile of one patient
Protocol: (§1) Results of reproductive endocrine testing were unique and novel (Table 1). […] elevated FSH and low estrogen level were indicative of a markedly diminished ovarian reserve. However, the presence of preantral follicles and the high AMH value indicated preservation of normal ovarian potential and possible reversal of effect following cessation of therapy.
The endocrine profile of a patient who developed amenorrhea while taking vismodegib (Erivedge™) was determined. […] Secondary amenorrhea, […] of established menses, may result from a variety of conditions, including suppression of the pituitary release of FSH or its hypothalamic control via gonadotropin releasing hormone GnRH. This can be drug induced, but patients presenting in this manner typically have very low or non-detectable gonadotropin (FSH and LH) levels and low estrogen levels. Alternatively, patients with ovarian failure (follicle depletion or menopause) present with high gonadotropins, which may be induced by radiation and/or medication such as chemotherapy.
This led to the conclusion that the cause of amenorrhea in at least this patient treated with visomdegib was due to blockage of the follicle stimulating hormone (FSH) receptor (FSH-R) signaling.

[2] = Reproductive endocrine testing of patient treated with vismodegib (case study); format: in vivo, human; conditions: patient on vismodegib 150 mg daily, about six months
Excerpt: (§2) A nulliparous person with a known diagnosis of Gorlin syndrome (Basal cell carcinoma nevus syndrome: Online Mendelian Inheritance in Man #109400) presented with more than 100 discrete BCC papules on the upper trunk and head, and neck regions. They were diagnosed and treated for lymphoma in 1988, prior to the BCCNS diagnosis and received chemotherapy and radiation therapy to the mantle zone, followed by radical neck dissection. They have remained in remission and their therapy had no apparent effect on menstrual function. They experienced menarche and had regular menses at 30 to 35 day intervals until starting the current therapy. Medications included synthroid 0.15 mg for longstanding hypothyroidism.
(§3) Several of their BCC lesions, while not clinically large, appeared in this area of combined radiation and surgical sclerosis overlying the carotid sheath. Multidisciplinary consultation recommended against further surgery. They commenced therapy with vismodegib (Erivedge™ Genentech, Inc., San Francisco, Calif.) 150 mg daily. […] Shortly thereafter they underwent a reproductive endocrinology evaluation.
as §1

[3] = Adverse effects and reproductive examination in patient treated with vismodegib (case study); format: in vivo, human; conditions: 150 mg daily
Excerpt: as §2, §3

[4] = system: BCC lesions (Gorlin syndrome); test: Clinical response of BCC lesions in patient treated with vismodegib (case study); format: in vivo, human; conditions: 150 mg daily, six months after commencing therapy
Excerpt: as §2, §3

[5] = oral therapy of BCC; cited from earlier work
[6] = shortly after six months of therapy

Effect on FSH action at FSH-R [1]: blocked the action of FSH on the FSH-R
Structure (SMILES): CS(=O)(=O)c1ccc(C(=O)Nc2ccc(Cl)c(-c3ccccn3)c2)c(Cl)c1 [vismodegib]
Follicle stimulating hormone (FSH) level ([2]; follicular phase normal 2-8 IU/L): 16.0 IU/L
Progesterone level ([2]; follicular phase range 0.2-1.5): 0.4
Estradiol level ([2]; follicular phase range 12.5-166 pg/ml): 26.9 pg/mL
Anti-mulerian hormone (AMH) level ([2]; normal range <6.9): 2.6
Leutinizing hormone (LH) level ([2]; ovulation phase range 14.0-95.6): 25.3
Side effects ([3]; approximately four months after onset of amenorrhea): hair loss, slight dysgeusia, and minor leg cramping
Menstrual function ([3]; one month after start): became amenorrheic
Transvaginal ultrasonography of ovaries [3, 6]: normal ovaries, bilaterally containing multiple pre-antral follicles
Vaginal exam findings [3, 6]: moderate atrophic vaginal changes suggesting hypoestrogenism
Clinical resolution of BCC lesions [4]: near complete clinical resolution of all lesions
Major side effects [5]: dysgeusia, alopecia, leg cramping, and gastrointestinal disturbances
